We go through 16 molecules from US20140343000A1 (priority 2011, published 2014).

Each structure is given as a SMILES string. pEC50: −log10 of the molar value. Bounds are passed on as bounds.

The first assay concerns recombinant NL4-3 virus (Renilla luciferase in nef, Gag P373S; NLRluc) in MT-2 cells. As to the kind of experiment: whole plant or invertebrate. The conditions noted are these: Renilla, NL43, luciferase activity in cells infected for 4-5 days with NLRluc recombinants, serial dilutions of inhibitor; class symbols (key in Table 1); read-out: EC50. The class given is cell-based, HIV. The procedure, abridged: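 Read-out is Renilla luciferase, measured immediately after adding a premixed lysis/Dual Luciferase reagent. The reporter virus, NL4-3 with luciferase replacing part of nef plus Gag P373S, infected MT-2 cells for 4–5 days under serially diluted inhibitor.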
For `C=C(C)[C@@H]1CC[C@]2(NCCCNC(=O)OC(C)(C)C)CC[C@]3(C)[C@H](CC[C@@H]4[C@@]5(C)CC=C(c6ccc(C(=O)O)cc6)C(C)(C)[C@@H]5CC[C@]43C)[C@@H]12` [Example 143, 4-((1R,3aS,5aR,5bR,7aR,11aS,11bR,13aR,13bR)-3a-(3-(tert-butoxycarbonylamino)propylamino)-5a,5b,8,8,11a-pentamethyl-1-(prop-1-en-2-yl)-2,3,3a,4,5,5a,5b,6,7,7a,8,11,11a,11b,12,13,13a,13b-octadecahydro-1H-cyclopenta[a]chrysen-9-yl)benzoic acid], the pEC50 (as a rule, the negative decadic logarithm of the EC50, by convention in mol/L) is more than 7.00. Regarding `C=C(C)[C@@H]1CC[C@]2(NCCCN3CCS(=O)(=O)CC3)CC[C@]3(C)[C@H](CC[C@@H]4[C@@]5(C)CC=C(c6ccc(C(=O)O)cc6)C(C)(C)[C@@H]5CC[C@]43C)[C@@H]12` [Example 144, 4-[(1R,3aS,5aR,5bR,7aR,11aS,11bR,13aR,13bR)-3a-[[3-(1,1-dioxido-4-thiomorpholinyl)propyl]amino]-2,3,3a,4,5,5a,5b,6,7,7a,8,11,11a,11b,12,13,13a,13b-octadecahydro-5a,5b,8,8,11a-pentamethyl-1-(1-methylethenyl)-1H-cyclopenta[a]chrysen-9-yl]-benzoic acid], the pEC50 was more than 7.00. Same read-out and setting: then `C=C(C)[C@@H]1CC[C@]2(NCC(=O)N(C)C)CC[C@]3(C)[C@H](CC[C@@H]4[C@@]5(C)CC=C(c6ccc(C(=O)O)cc6)C(C)(C)[C@@H]5CC[C@]43C)[C@@H]12` [Example 145, 4-((1R,3aS,5aR,5bR,7aR,11aS,11bR,13aR,13bR)-3a-(2-(dimethylamino)-2-oxoethylamino)-5a,5b,8,8,11a-pentamethyl-1-(prop-1-en-2-yl)-2,3,3a,4,5,5a,5b,6,7,7a,8,11,11a,11b,12,13,13a,13b-octadecahydro-1H-cyclopenta[a]chrysen-9-yl)benzoic acid], with more than 7.00; and `C=C(C)[C@@H]1CC[C@]2(NCCN3CCCC3=O)CC[C@]3(C)[C@H](CC[C@@H]4[C@@]5(C)CC=C(c6ccc(C(=O)O)cc6)C(C)(C)[C@@H]5CC[C@]43C)[C@@H]12` [Example 146, 4-((1R,3aS,5aR,5bR,7aR,11aS,11bR,13aR,13bR)-5a,5b,8,8,11a-pentamethyl-3a-(2-(2-oxopyrrolidin-1-yl)ethylamino)-1-(prop-1-en-2-yl)-2,3,3a,4,5,5a,5b,6,7,7a,8,11,11a,11b,12,13,13a,13b-octadecahydro-1H-cyclopenta[a]chrysen-9-yl)benzoic acid], with more than 7.00; and `C=C(C)[C@@H]1CC[C@]2(NCC(=O)N3CCCC3)CC[C@]3(C)[C@H](CC[C@@H]4[C@@]5(C)CC=C(c6ccc(C(=O)O)cc6)C(C)(C)[C@@H]5CC[C@]43C)[C@@H]12` [Example 147, 4-((1R,3aS,5aR,5bR,7aR,11aS,11bR,13aR,13bR)-5a,5b,8,8,11a-pentamethyl-3a-(2-oxo-2-(pyrrolidin-1-yl)ethylamino)-1-(prop-1-en-2-yl)-2,3,3a,4,5,5a,5b,6,7,7a,8,11,11a,11b,12,13,13a,13b-octadecahydro-1H-cyclopenta[a]chrysen-9-yl)benzoic acid], with more than 7.00.

`C=C(C)[C@@H]1CC[C@]2(NCC(=O)NC)CC[C@]3(C)[C@H](CC[C@@H]4[C@@]5(C)CC=C(c6ccc(C(=O)O)cc6)C(C)(C)[C@@H]5CC[C@]43C)[C@@H]12` [Example 148, 4-((1R,3aS,5aR,5bR,7aR,11aS,11bR,13aR,13bR)-5a,5b,8,8,11a-pentamethyl-3a-(2-(methylamino)-2-oxoethylamino)-1-(prop-1-en-2-yl)-2,3,3a,4,5,5a,5b,6,7,7a,8,11,11a,11b,12,13,13a,13b-octadecahydro-1H-cyclopenta[a]chrysen-9-yl)benzoic acid]: the pEC50 was more than 7.00. The same measure, in the same setting: with `C=C(C)[C@@H]1CC[C@]2(NCC(=O)N(CC)CC)CC[C@]3(C)[C@H](CC[C@@H]4[C@@]5(C)CC=C(c6ccc(C(=O)O)cc6)C(C)(C)[C@@H]5CC[C@]43C)[C@@H]12` [Example 149, 4-((1R,3aS,5aR,5bR,7aR,11aS,11bR,13aR,13bR)-3a-(2-(diethylamino)-2-oxoethylamino)-5a,5b,8,8,11a-pentamethyl-1-(prop-1-en-2-yl)-2,3,3a,4,5,5a,5b,6,7,7a,8,11,11a,11b,12,13,13a,13b-octadecahydro-1H-cyclopenta[a]chrysen-9-yl)benzoic acid] the figure was more than 7.00; with `C=C(C)[C@@H]1CC[C@]2(NCC(=O)NC(C)C)CC[C@]3(C)[C@H](CC[C@@H]4[C@@]5(C)CC=C(c6ccc(C(=O)O)cc6)C(C)(C)[C@@H]5CC[C@]43C)[C@@H]12` [Example 150, 4-((1R,3aS,5aR,5bR,7aR,11aS,11bR,13aR,13bR)-3a-(2-(isopropylamino)-2-oxoethylamino)-5a,5b,8,8,11a-pentamethyl-1-(prop-1-en-2-yl)-2,3,3a,4,5,5a,5b,6,7,7a,8,11,11a,11b,12,13,13a,13b-octadecahydro-1H-cyclopenta[a]chrysen-9-yl)benzoic acid], more than 7.00; with `C=C(C)[C@@H]1CC[C@]2(NCCO)CC[C@]3(C)[C@H](CC[C@@H]4[C@@]5(C)CC=C(c6ccc(C(=O)O)cc6)C(C)(C)[C@@H]5CC[C@]43C)[C@@H]12` [Example 151, 4-((1R,3aS,5aR,5bR,7aR,11aS,11bR,13aR,13bR)-3a-(2-hydroxyethylamino)-5a,5b,8,8,11a-pentamethyl-1-(prop-1-en-2-yl)-2,3,3a,4,5,5a,5b,6,7,7a,8,11,11a,11b,12,13,13a,13b-octadecahydro-1H-cyclopenta[a]chrysen-9-yl)benzoic acid], more than 7.00. Still for that read-out and setting: then `C=C(C)[C@@H]1CC[C@]2(NCC3CC3)CC[C@]3(C)[C@H](CC[C@@H]4[C@@]5(C)CC=C(c6ccc(C(=O)O)cc6)C(C)(C)[C@@H]5CC[C@]43C)[C@@H]12` [Example 152, 4-((1R,3aS,5aR,5bR,7aR,11aS,11bR,13aR,13bR)-3a-(cyclopropylmethylamino)-5a,5b,8,8,11a-pentamethyl-1-(prop-1-en-2-yl)-2,3,3a,4,5,5a,5b,6,7,7a,8,11,11a,11b,12,13,13a,13b-octadecahydro-1H-cyclopenta[a]chrysen-9-yl)benzoic acid], with more than 7.00. Same read-out and setting: then `C=C(C)[C@@H]1CC[C@]2(NCC3CCCN(C(=O)OC(C)(C)C)C3)CC[C@]3(C)[C@H](CC[C@@H]4[C@@]5(C)CC=C(c6ccc(C(=O)O)cc6)C(C)(C)[C@@H]5CC[C@]43C)[C@@H]12` (stereo partly drawn) [Example 153, 4-((1R,3aS,5aR,5bR,7aR,11aS,11bR,13aR,13bR)-3a-((1-(tert-butoxycarbonyl)piperidin-3-yl)methylamino)-5a,5b,8,8,11a-pentamethyl-1-(prop-1-en-2-yl)-2,3,3a,4,5,5a,5b,6,7,7a,8,11,11a,11b,12,13,13a,13b-octadecahydro-1H-cyclopenta[a]chrysen-9-yl)benzoic acid], with less than 7.00. With `C=C(C)[C@@H]1CC[C@]2(NCC3CCCNC3)CC[C@]3(C)[C@H](CC[C@@H]4[C@@]5(C)CC=C(c6ccc(C(=O)O)cc6)C(C)(C)[C@@H]5CC[C@]43C)[C@@H]12` (stereo partly drawn) [Example 154, 4-((1R,3aS,5aR,5bR,7aR,11aS,11bR,13aR,13bR)-5a,5b,8,8,11a-pentamethyl-3a-(piperidin-3-ylmethylamino)-1-(prop-1-en-2-yl)-2,3,3a,4,5,5a,5b,6,7,7a,8,11,11a,11b,12,13,13a,13b-octadecahydro-1H-cyclopenta[a]chrysen-9-yl)benzoic acid], the negative-log EC50 (pEC50) is more than 7.00.

Consider `C=C(C)[C@@H]1CC[C@]2(NCc3ccco3)CC[C@]3(C)[C@H](CC[C@@H]4[C@@]5(C)CC=C(c6ccc(C(=O)O)cc6)C(C)(C)[C@@H]5CC[C@]43C)[C@@H]12` [Example 155, 4-((1R,3aS,5aR,5bR,7aR,11aS,11bR,13aR,13bR)-3a-(furan-2-ylmethylamino)-5a,5b,8,8,11a-pentamethyl-1-(prop-1-en-2-yl)-2,3,3a,4,5,5a,5b,6,7,7a,8,11,11a,11b,12,13,13a,13b-octadecahydro-1H-cyclopenta[a]chrysen-9-yl)benzoic acid], for which the pEC50 was more than 7.00. For `C=C(C)[C@@H]1CC[C@]2(NCC3CC3C(=O)O)CC[C@]3(C)[C@H](CC[C@@H]4[C@@]5(C)CC=C(c6ccc(C(=O)O)cc6)C(C)(C)[C@@H]5CC[C@]43C)[C@@H]12` (stereo partly drawn) [Example 157, 4-((1R,3aS,5aR,5bR,7aR,11aS,11bR,13aR,13bR)-3a-((2-carboxycyclopropyl)methylamino)-5a,5b,8,8,11a-pentamethyl-1-(prop-1-en-2-yl)-2,3,3a,4,5,5a,5b,6,7,7a,8,11,11a,11b,12,13,13a,13b-octadecahydro-1H-cyclopenta[a]chrysen-9-yl)benzoic acid], the negative logarithm of the EC50 (pEC50) is more than 7.00. The same measure, in the same setting: with `C=C(C)[C@@H]1CC[C@]2(NCc3ccsc3)CC[C@]3(C)[C@H](CC[C@@H]4[C@@]5(C)CC=C(c6ccc(C(=O)O)cc6)C(C)(C)[C@@H]5CC[C@]43C)[C@@H]12` [Example 158, 4-((1R,3aS,5aR,5bR,7aR,11aS,11bR,13aR,13bR)-5a,5b,8,8,11a-pentamethyl-1-(prop-1-en-2-yl)-3a-(thiophen-3-ylmethylamino)-2,3,3a,4,5,5a,5b,6,7,7a,8,11,11a,11b,12,13,13a,13b-octadecahydro-1H-cyclopenta[a]chrysen-9-yl)benzoic acid] the figure was more than 7.00.

The assay is the same for the next values; noted with them: Renilla, NL43, luciferase activity in cells infected for 4-5 days with NLRluc recombinants, serial dilutions of inhibitor; numeric values; read-out: EC50.
With `C=C(C)[C@@H]1CC[C@]2(NCC(OC)OC)CC[C@]3(C)[C@H](CC[C@@H]4[C@@]5(C)CC=C(c6ccc(C(=O)O)cc6)C(C)(C)[C@@H]5CC[C@]43C)[C@@H]12` [Example 156, 4-((1R,3aS,5aR,5bR,7aR,11aS,11bR,13aR,13bR)-3a-(2,2-dimethoxyethylamino)-5a,5b,8,8,11a-pentamethyl-1-(prop-1-en-2-yl)-2,3,3a,4,5,5a,5b,6,7,7a,8,11,11a,11b,12,13,13a,13b-octadecahydro-1H-cyclopenta[a]chrysen-9-yl)benzoic acid], the pEC50 is 6.92.
